Consider 3 compounds from PMC10257291, “Biological activities of extracts and compounds from Thai Kae-Lae (Maclura cochinchinensis (Lour.) Corner)” (BMC Complementary Medicine and Therapies, 2023).

As a reminder, the IC50 is the midpoint of a concentration-inhibition curve.

Converted amounts (≈) assume the structure as drawn.

The test system of data set [1] is K562 cells. Nature of the data set: Rate of proliferation, K562 cells. The class given is cell-based, human. Particulars: for decrease of rate of proliferation, K562 cells: IC20 value, 24 and 48 h (time-response), vs control; for rate of cell proliferation, K562 cells (in words): concentrations IC10 − IC20 values, 48 h. Here is the method:
(§1) According to the principle of trypan blue exclusion, viable cells with intact membranes can exclude trypan blue dye, while dead cells with compromised membranes are stained by the trypan blue dye solution. A cell suspension and trypan blue dye solution (0.2%) were mixed, and viable and dead cells were counted under microscope using a hemacytometer. Then, the percentage of viable cells was calculated. KG-1a, EoL-1 and K562 cells were cultured with crude fractional extracts and active pure compounds at various concentrations (10 − 20% growth inhibition; IC10 − IC20 values) of each extract for 48 h, at a 20% growth inhibition (IC20 value) of each extract for 24 and 48 h. Following incubation, cells were harvested, and the total cell number was counted using trypan blue exclusion method. Three independent experiments were plotted as a dose–response curve and compared with the vehicle control. Meanwhile, the total cell number of each cell line after fractional extract and pure compound treatments at 24 and 48 h were calculated and plotted as a time-response curve. Slopes from each graph were considered as the rate of cell proliferation.

The subject of another data set is RAW 264.7 cells. In words: RAW 264.7 cell viability by MTT assay. The class given is cell-based. Particulars: Mus musculus, RAW264.7, read-out: IC20 values (concentrations at 80% of RAW 264.7 cells). Here is the method:
Mouse monocyte macrophage RAW 264.7 cells (American Type Culture Collection, […]-71) were stimulated with lipopolysaccharide (LPS) or phytohemagglutinin (PHA). The LPS treated RAW 264.7 cells served as a vehicle control, of which the NO production, and the secreted cytokines were defined as 100%, whereas a negative control was non-treated RAW 264.7 cells. Dexamethasone (an anti-inflammatory drug) was used as a positive control. RAW 264.7 cell viability was also determined with the assay kit using MTT assay. The supernatant was removed, and MTT was added. After 2 h in a CO2 incubator, the supernatant was removed, and the formazan crystal were dissolved with DMSO. The optical density was measured at 578 nm and corrected with the reference wavelength of 630 nm using a multimode detector (Beckman CoulterDTX880, Fullerton, CA, USA). NO inhibitions were calculated using the following equation: […]
(Tetrazolium dyes change colour on reduction, which living cells bring about.)

For the next data set, the system named is PBMCs. Nature of the data set: Cytotoxicity of PBMCs by MTT assay. It is filed as cell-based. Particulars: Homo sapiens, PBMC, 48 h, normal PBMCs, read-out: IC50 values (mean ± SD) PBMCs. Here is the method:
Method was done as previously described. Briefly, peripheral blood mononuclear cells (PBMCs) were obtained from healthy donors using Ficoll-Hypaque density-gradient centrifugation using Lymphoprep™ solution (Axis-Shield, Oslo, Norway). The PBMCs (1 × 10^6 cells/mL) were cultured in complete RPMI-1640 medium in 96-well plates overnight in a CO2 incubator. […] Then cells were further incubated for 48 h. The survival rate of cells was assessed using the MTT assay.

In a further data set the test system is IL-2. In words: IL-2 secretion in PHA-stimulated PBMCs (ELISA). The class given is cell-based, human. The note with it: sample at IC20 value, vs dexamethasone 1 μg/mL. From the text:
Mouse monocyte macrophage RAW 264.7 cells (American Type Culture Collection, […]-71) were stimulated with lipopolysaccharide (LPS) or phytohemagglutinin (PHA). The LPS treated RAW 264.7 cells served as a vehicle control, of which the NO production, and the secreted cytokines were defined as 100%, whereas a negative control was non-treated RAW 264.7 cells. Dexamethasone (an anti-inflammatory drug) was used as a positive control. PBMCs (1 × 10^5 cells/well in RPMI-1640 for IL-2) and Raw cells (1 × 10^5 cells/well in DMEM for TNF-α) were seeded for 24 h in a CO2 incubator set at 37 °C and 5% CO2/95% humidified air. Then cells were treated with […] fractional extracts (IC20 value) or pure compounds (IC20 value), or dexamethasone (1 μg/mL) were added. Following 2-h of incubation in a CO2 incubator, LPS was treated for a final dose of 1 μg/mL under conditions of TNF-α measurement. In contrast, PHA was added to induce inflammation in IL-2 measurement. After 24 h, the media were removed and centrifuged at 13,500 × g for 10 min and 100 μL of the supernatant was analysed by the protocol of R&D Systems, Minneapolis, MN, USA using ELISA technique. The absorbance was measured at 450 nm and corrected with the reference wavelength of 570 nm (Beckman CoulterDTX880, Fullerton, CA, USA). Viability of PBMCs and RAW 264.7 cells was also determined using MTT assay as described previously. IL-2 and TNF-α secretion inhibitions were calculated as bellow:4 %Cytokineinhibition=A-B/A×100 A is the optical density of the mixture without the sample, while B is the optical density of the mixture with the sample. Dexamethasone was a positive control. All experiments were done in triplicate.

A further data set is described as follows: RBC haemolysis induction. The note with it: human, 2% red blood cell suspension.
Data set [2] has as its system K562 cells. In words: Cytotoxicity by MTT assay in K562 cells. The note with it: Homo sapiens, 48 h, read-out: IC50 values (mean ± SD) K562. It is filed as cell-based. Here is the method: (§2) Leukaemic cell lines including KG-1a (leukaemic stem cell-like cell line with stem cell population), EoL-1 (human […] leukaemic cell line), and K562 (human erythroid leukaemic cell line) were cultured as previously described. The MTT (3-(4,5-dimethylthiazol-2-yl)-2,5-diphenyltetrazolium bromide) assay was used to determine the cytotoxicity of […] extracts and active compounds on leukaemic cells. The method was described previously. K562 (1.0 × 10^5 cells/mL), EoL-1 (3.0 × 10^5 cells/mL), and KG-1a (2.0 × 10^5 cells/mL) were added samples and then incubated for 48 h. The percentage of surviving cells was calculated using the following equation: 1 %Cellviability=Meanabsorbanceintestwell/[…] 50% inhibitory concentration (IC50) was determined as the lowest concentration that inhibited cell growth by 50% compared with the untreated control.

For another data set, the system named is KG-1a cells. In words: Cytotoxicity by MTT assay in KG-1a cells. It is filed as cell-based. The note with it: Homo sapiens, 48 h, read-out: IC50 values (mean ± SD) KG-1a. Here is the method:
as §2

For data set [3], the system named is EoL-1 cells. Nature of the data set: Cytotoxicity by MTT assay in EoL-1 cells. The note with it: Homo sapiens, EOL1, 48 h, read-out: IC50 values (mean ± SD) EoL-1. The class given is cell-based. Here is the method:
as §2

For data set [4], the system named is EoL-1 cells. Nature of the data set: Rate of proliferation, EoL-1 cells. The class given is cell-based, human. Particulars: for decrease of rate of proliferation, EoL-1 cells: IC20 value, 24 and 48 h (time-response), vs control; for rate of cell proliferation, EoL-1 cells (in words): concentrations IC10 − IC20 values, 48 h. Here is the method:
as §1

Procedure for RBC haemolysis induction: The whole blood samples were obtained from normal volunteers. Red blood cells were separated by centrifugation and washed 2 times with 0.9% NaCl. Then, 2% RBC suspension was incubated with crude fractional extracts and compounds at 37 °C for 30 min. Triton-X 100 (2%) and NaCl (0.9%) were positive and negative controls, respectively. Then, the supernatant was collected, and haemoglobin concentration was measured by spectrophotometry at 540 nm. The haemolysis induction was calculated using the following equation:5 %Haemolysisinduction=Absorbance of sample/Absorbance of positive contr×100

As for `O=c1c(O)c(-c2ccc(O)cc2O)oc2cc(O)cc(O)c12` [Morin, 2’,3,4’,5,7-pentahydroxyflavonone], the “decrease of rate of proliferation, K562 cells” value (shortened to “decrease of rate … K562 cells”) with K562 cells [1] was “decrease the proliferation rate”. The “rate of cell proliferation, K562 cells (in words)” value (shortened to “rate … K562 cells (in words)”) in the data set with K562 cells [1] is “significant difference at concentrations of 70, 80, and 90 µg/mL”. Besides, the IC20 in the data set on RAW 264.7 cells was determined as 62.4 ± 7.44 µg/mL (≈ 206 µM). In addition, the IC50 in the data set on PBMCs was over 100 µg/mL; with K562 cells [2], over 100 µg/mL; in the data set on KG-1a cells, over 100 µg/mL; with EoL-1 cells [3], 18.4 ± 1.6 µg/mL (≈ 60.7 µM). The IL-2 inhibition result with IL-2 is recorded as “suppressed IL-2 significantly better than dexamethasone”. The same compound had a hemolysis at 30 min, 50 μg/mL in the data set “RBC haemolysis induction” of 9.39 ± 1.34%. The hemolysis at 30 min, 100 μg/mL in “RBC haemolysis induction” was 9.82 ± 1.09%. Moreover, in the data set “RBC haemolysis induction”, the hemolysis at 30 min, 150 μg/mL is 10.2 ± 1%. In addition, the “decrease of rate of proliferation, EoL-1 cells” value (“decrease of rate … EoL-1 cells” below) with EoL-1 cells [4] is “decrease the proliferation rate”.

Turning to `O=c1c(O)c(-c2ccc(O)c(O)c2)oc2cc(O)cc(O)c12` [Quercetin, quercetin], in the data set with K562 cells [1], the “decrease of rate … K562 cells” value was “significantly decreasing rates of proliferation” and the “rate … K562 cells (in words)” value is given as “significantly decreasing rate of cell proliferation”. Also, in the data set on RAW 264.7 cells, the IC20 turned out to be 35.5 ± 6.49 µg/mL (≈ 118 µM). In addition, the IC50 in the data set with PBMCs is over 100 µg/mL. Besides, in the data set with IL-2, the IL-2 inhibition result is “suppressed IL-2 significantly better than dexamethasone”. Moreover, in “RBC haemolysis induction”, the hemolysis at 30 min, 10 μg/mL is 8.51 ± 0.86%; the hemolysis at 30 min, 50 μg/mL was 8.85 ± 0.21%; the hemolysis at 30 min, 100 μg/mL was 8.74 ± 0.26%. Moreover, the IC50 with K562 cells [2] was over 100 µg/mL. Besides, the half-inhibitory concentration (IC50) with KG-1a cells came out at 72.6 ± 7.45 µg/mL (≈ 240 µM). The half-inhibitory concentration (IC50) with EoL-1 cells [3] came to 5.89 ± 0.46 µg/mL (≈ 19.5 µM). In the data set with EoL-1 cells [4], the “decrease of rate … EoL-1 cells” value was “significantly decreasing rates of proliferation” and the “rate of cell proliferation, EoL-1 cells (in words)” value is “significantly decreasing rate of cell proliferation”.

Turning to `Oc1ccc(/C=C/c2cc(O)cc(O)c2)cc1` [Resveratrol, resveratrol], in the data set on K562 cells [1], the “decrease of rate … K562 cells” value is listed as 93.20% and the “rate … K562 cells (in words)” value is listed as “significantly decreasing rate of cell proliferation”. Also, in the data set on RAW 264.7 cells, the IC20 is 3.4 ± 0.2 µg/mL (≈ 14.9 µM). For the same compound, the IC50 in the data set on PBMCs was found to be 44 ± 9.7 µg/mL (≈ 193 µM). In addition, in the data set on IL-2, the IL-2 inhibition result was “suppressed IL-2 significantly better than dexamethasone”. In “RBC haemolysis induction”, this compound came in with a hemolysis at 30 min, 10 μg/mL of 8.96 ± 1.83%; a hemolysis at 30 min, 20 μg/mL of 8.58 ± 0.67%; a hemolysis at 30 min, 40 μg/mL of 8.95 ± 0.21%. Further, the IC50 in the data set on K562 cells [2] turned out to be 41.6 ± 1.92 µg/mL (≈ 182 µM). Moreover, the IC50 in the data set on KG-1a cells stood at 20.7 ± 2.65 µg/mL (≈ 90.7 µM). The IC50 with EoL-1 cells [3] was determined as 5.49 ± 0.29 µg/mL (≈ 24.1 µM). In the data set on EoL-1 cells [4], the “decrease of rate … EoL-1 cells” value is listed as 95.45% and the “rate of cell proliferation, EoL-1 cells (in words)” value is on record as “significantly decreasing rate of cell proliferation”.
